Experimental findings from ChEMBL document CHEMBL1201862, “PubChem BioAssay data set” (2004) are described below.

Some test systems named below: Malme-3M; 786-0; SN12C; OVCAR-3; IGROV-1; A549; SF-295; UACC-257; HCT-15; HL-60; U-251; OVCAR-4; UACC-62; SNB-19; HOP-62; SK-MEL-28; OVCAR-5; HT-29; SR.
Assay in all cases: DTP human tumour cell line panel, 48 h

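Where inhibition never reached the appropriate level, the endpoint shown equals the highest concentration tested. Otherwise, values were interpolated linearly from a five-concentration, 48-hour dose response in 96-well plates. The concentration for 50% growth inhibition is given as GI50.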 The source made the active and inactive calls. Rule as the data show it: active = GI50 up to about 1.1 µM and inactive = higher.

As a reminder, the GI50 is the concentration giving 50% growth inhibition.

Turning to `NC1CCCCC1.O=C(O)C1(P(=O)(O)O)CC1`, the GI50 with Malme-3M, in the assay with 786-0, in the assay on SN12C, in the assay with OVCAR-3, in the assay with IGROV-1 and in the assay with A549 was > 100 µM (inactive) in each case. The GI50 in the assay on SF-295 was > 100 µM (inactive); in the assay with UACC-257, > 100 µM (inactive); in the assay with HCT-15, greater than 100 µM; in the assay on HL-60, > 100 µM (inactive); with U-251, > 100 µM (inactive); in the assay with OVCAR-4 it was > 100 µM (inactive). Moreover, the GI50 in the assay on UACC-62, with SNB-19, with HOP-62 and in the assay with SK-MEL-28 was > 100 µM (inactive) in each case.
With `CC(=O)OC1COC(n2c(=S)n(-c3ccc(C)cc3)c(=O)c3ccccc32)C(OC(C)=O)C1OC(C)=O` (stereo unspecified), the GI50 in the assay on Malme-3M, with 786-0, with SN12C, with OVCAR-3, in the assay with IGROV-1 and in the assay on A549 was > 100 µM (inactive) each time. In addition, the GI50 is 85.5 µM (inactive) in the assay on SF-295; > 100 µM (inactive) in the assay with UACC-257; > 100 µM (inactive) with OVCAR-5; greater than 100 µM with HCT-15; > 100 µM (inactive) in the assay with U-251; > 100 µM (inactive) in the assay with OVCAR-4. In addition, the GI50 in the assay with HT-29, in the assay on UACC-62, in the assay on SNB-19, in the assay on HOP-62 and with SK-MEL-28 was > 100 µM (inactive) throughout.
Regarding `Cc1[nH]c2ccccc2c1-c1n[nH]c(=O)c2ccccc12`, the GI50 with Malme-3M was 22.3 µM (inactive); with 786-0 it was 27 µM (inactive); with OVCAR-3 it was 23.3 µM (inactive); with IGROV-1 it was 31.5 µM (inactive); with A549, 24.6 µM (inactive); with SF-295 it was 23.3 µM (inactive). Besides, the GI50 was 25.1 µM (inactive) with UACC-257; 46.5 µM (inactive) with OVCAR-5; 5.33 µM in the assay on HCT-15; 7.82 µM (inactive) with HL-60; 31.5 µM (inactive) in the assay on U-251; 29.3 µM (inactive) in the assay on OVCAR-4. The GI50 with HT-29 is 24.1 µM (inactive); in the assay with UACC-62, 19.5 µM (inactive); in the assay on HOP-62, 6.56 µM (inactive); with SK-MEL-28, 26.5 µM (inactive).
As to `N#C/C(=C1\SC(C(N)=O)=C(N)N1c1ccccc1)c1nc2ccccc2[nH]1`, the GI50 was > 100 µM (inactive) in the assay with Malme-3M; > 100 µM (inactive) in the assay on 786-0; > 100 µM (inactive) in the assay with SN12C; > 100 µM (inactive) in the assay on OVCAR-3; 37.3 µM (inactive) with IGROV-1; > 100 µM (inactive) with A549. The GI50 in the assay on SF-295 is > 100 µM (inactive); in the assay with UACC-257, > 100 µM (inactive); with OVCAR-5, > 100 µM (inactive); with HCT-15, greater than 100 µM; in the assay on HL-60, > 100 µM (inactive); in the assay with U-251 it was > 100 µM (inactive). The GI50 with OVCAR-4 is > 100 µM (inactive); in the assay with HT-29, 82.8 µM (inactive); in the assay on UACC-62 it was > 100 µM (inactive); with SNB-19 it was > 100 µM (inactive); with HOP-62, > 100 µM (inactive); in the assay with SK-MEL-28, > 100 µM (inactive).
On to `S=C1ON=C(c2ccccc2)/C1=C/Nc1ccccc1`, for which the GI50 is 77.1 µM (inactive) in the assay with Malme-3M; > 100 µM (inactive) in the assay with 786-0; > 100 µM (inactive) in the assay with SN12C; > 100 µM (inactive) in the assay with IGROV-1; > 100 µM (inactive) in the assay on A549; > 100 µM (inactive) with SF-295. Also, the GI50 in the assay with UACC-257 is > 100 µM (inactive); in the assay with OVCAR-5 it was > 100 µM (inactive); with HCT-15, 78.9 µM; in the assay on HL-60 it was > 100 µM (inactive); with U-251, > 100 µM (inactive); in the assay on OVCAR-4, 9.62 µM (inactive). For the same compound, the GI50 is > 100 µM (inactive) in the assay with HT-29, 3.24 µM (inactive) in the assay on UACC-62, > 100 µM (inactive) with SNB-19 and > 100 µM (inactive) in the assay on SK-MEL-28.
Consider `O=c1c(C(c2ccc([N+](=O)[O-])cc2)c2c(O)c3ccccc3n(-c3ccccc3)c2=O)c(O)c2ccccc2n1-c1ccccc1`, for which the GI50 in the assay with Malme-3M was 13 µM (inactive); with 786-0 it was 11.6 µM (inactive); in the assay with SN12C, 11.7 µM (inactive); in the assay with OVCAR-3, 24.1 µM (inactive); in the assay with SR it was 9.98 µM (inactive); with IGROV-1, 6.56 µM (inactive). Also, the GI50 was 15.5 µM (inactive) with A549; 12.5 µM (inactive) in the assay with SF-295; 51.9 µM (inactive) in the assay on OVCAR-5; 10.1 µM in the assay on HCT-15; 10.2 µM (inactive) in the assay with U-251; 59.7 µM (inactive) in the assay on OVCAR-4. The GI50 was 3.76 µM (inactive) in the assay on UACC-62, 7.28 µM (inactive) in the assay on SNB-19, 14.5 µM (inactive) with HOP-62 and 16.5 µM (inactive) in the assay with SK-MEL-28.
Consider `CNC(C)(C)Cc1ccc(Cl)cc1`, for which the GI50 in the assay with Malme-3M, with 786-0, in the assay with SN12C, in the assay with OVCAR-3, in the assay on IGROV-1 and with A549 was > 100 µM (inactive) each time. The GI50 in the assay with SF-295, with UACC-257, with U-251, in the assay with OVCAR-4, in the assay on HT-29 and in the assay on UACC-62 was > 100 µM (inactive) each time. For the same compound, the GI50 with HOP-62 and in the assay with SK-MEL-28 was > 100 µM (inactive) throughout.
Take `CC(C)C(C(=O)O)N(CC1(O)OCC(O)C(O)C1O)N=O` (stereo unspecified): the GI50 in the assay on Malme-3M, in the assay on 786-0, in the assay on OVCAR-3, in the assay with IGROV-1, with A549 and in the assay with UACC-257 was > 100 µM (inactive) each time. Further, the GI50 in the assay with OVCAR-5, in the assay on HL-60, with U-251, in the assay on HT-29, in the assay with UACC-62 and in the assay on HOP-62 was > 100 µM (inactive) each time. Also, in the assay with SK-MEL-28, the GI50 was > 100 µM (inactive).
As for `CSc1nc2c(nc(N)n2C2OC(COC(C)=O)C(OC(C)=O)C(OC(C)=O)C2OC(C)=O)c(=O)n1C` (stereo unspecified), the GI50 in the assay with Malme-3M, in the assay with 786-0, in the assay on SN12C, in the assay with OVCAR-3, in the assay with IGROV-1 and with A549 was > 100 µM (inactive) each time. Moreover, the GI50 in the assay on SF-295 was > 100 µM (inactive); in the assay with UACC-257 it was > 100 µM (inactive); in the assay with OVCAR-5, > 100 µM (inactive); with HCT-15, greater than 100 µM; in the assay with HL-60, > 100 µM (inactive); with U-251 it was > 100 µM (inactive). The GI50 in the assay on OVCAR-4, in the assay on HT-29, with UACC-62, in the assay on SNB-19 and in the assay with HOP-62 was > 100 µM (inactive) throughout.
Turning to `CC(C)(C)NCC(COc1ccc([N+](=O)[O-])cc1)OP(c1ccccc1)c1ccccc1` (stereo unspecified), the GI50 with Malme-3M is 25 µM (inactive); in the assay on 786-0 it was 29 µM (inactive); in the assay with SN12C, 36.6 µM (inactive); with OVCAR-3, 34 µM (inactive); in the assay on IGROV-1 it was 53.3 µM (inactive); in the assay on A549, 40.6 µM (inactive). The GI50 with SF-295 was 23.7 µM (inactive); in the assay with UACC-257, 44 µM (inactive); in the assay on OVCAR-5, 82.4 µM (inactive); with HCT-15, 37.8 µM; in the assay with HL-60, 19.7 µM (inactive); in the assay on U-251, 41.5 µM (inactive). Further, the GI50 in the assay on HT-29 was 27.7 µM (inactive); in the assay with UACC-62, 44.4 µM (inactive); with SNB-19, 38.7 µM (inactive); in the assay on HOP-62, > 100 µM (inactive); in the assay on SK-MEL-28, 55 µM (inactive).
For the compound `CN(C)CC1(C)CC/C(=C\c2ccc3c(c2)OCO3)C1=O` (stereo unspecified), the GI50 in the assay on Malme-3M was > 100 µM (inactive); with 786-0, > 100 µM (inactive); in the assay with SN12C, > 100 µM (inactive); with OVCAR-3 it was > 100 µM (inactive); in the assay with SR, 45.9 µM (inactive); with IGROV-1 it was > 100 µM (inactive). The GI50 with A549 was > 100 µM (inactive); in the assay with SF-295, > 100 µM (inactive); in the assay on UACC-257, > 100 µM (inactive); with OVCAR-5, > 100 µM (inactive); in the assay with HCT-15, greater than 100 µM; in the assay with U-251, > 100 µM (inactive). In addition, the GI50 in the assay with OVCAR-4 was > 100 µM (inactive); in the assay on HT-29, > 100 µM (inactive); in the assay on UACC-62, 67.3 µM (inactive); in the assay with SNB-19 it was > 100 µM (inactive); in the assay on HOP-62, > 100 µM (inactive); in the assay with SK-MEL-28 it was > 100 µM (inactive).
Consider `Clc1ccc2c(c1)-c1c3c(nn1-c1ccccc1)-c1ccccc1SC3O2` (stereo unspecified), for which the GI50 with Malme-3M, in the assay on 786-0, in the assay with OVCAR-3, in the assay with IGROV-1, with A549 and in the assay with SF-295 was > 100 µM (inactive) in each case. Also, the GI50 in the assay on UACC-257 was > 100 µM (inactive); in the assay with OVCAR-5, > 100 µM (inactive); in the assay on HL-60, 79.4 µM (inactive); in the assay on U-251 it was > 100 µM (inactive); with HT-29, > 100 µM (inactive); in the assay with HOP-62, > 100 µM (inactive). Also, the GI50 in the assay with SK-MEL-28 is > 100 µM (inactive).
